According to the supplement of paper PMC4862054:

Experiments:
Details in all cases: incubation time: 72 h
BT-474 = assay: normalised response (% of control), CellTox Green; higher = less cell death (100 = DMSO, 0 = benzethonium chloride kill control)
Summary of the method: (§1)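 For each plate, 0.1 % DMSO was set to 100 and a positive kill control to 0. Breast cancer cell lines (20 µl suspension) were seeded into 384-well plates already holding compound at 5 concentrations in 10-fold steps over a 10,000-fold range chosen per compound, and incubated for 72 h. CellTox Green fluorescence at 485/520 nm was read before CellTiter-Glo luminescence, which followed 10 min at room temperature. Each value is the normalised signal at one concentration.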

BT-549 = assay: as above
Summary of the method: as §1

CAL-120 = assay: as above
Summary of the method: as §1

CAL-148 = assay: as above
Summary of the method: as §1

CAL-51 = assay: as above
Summary of the method: as §1

CAL-85-1 = assay: as above
Summary of the method: as §1

DU-4475 = assay: as above
Summary of the method: as §1

HCC1143 = assay: as above
Summary of the method: as §1

HCC1599 = assay: as above
Summary of the method: as §1

HCC1937 = assay: as above
Summary of the method: as §1

Hs578T = assay: as above
Summary of the method: as §1

MCF-10A = assay: as above
Summary of the method: as §1

MDA-MB-231 = assay: as above
Summary of the method: as §1

MDA-MB-436 [1] = assay: as above
Summary of the method: as §1

MDA-MB-453 = assay: as above
Summary of the method: as §1

MDA-MB-468 [2] = assay: as above
Summary of the method: as §1

MFM-223 [3] = assay: as above
Summary of the method: as §1

MDA-MB-436 [4] = assay: normalised response (% of control), CellTiter-Glo; higher = more viable cells (100 = DMSO, 0 = benzethonium chloride kill control)
Summary of the method: as §1

MDA-MB-468 [5] = assay: as above
Summary of the method: as §1

MFM-223 [6] = assay: as above
Summary of the method: as §1

SK-BR-3 = assay: as above
Summary of the method: as §1

HDQ-P1 = assay: normalised response (% of control), CellTox Green; higher = less cell death (100 = DMSO, 0 = benzethonium chloride kill control)
Summary of the method: as §1

SMILES | normalised response (BT-474) [%] | normalised response (BT-549) [%] | normalised response (CAL-120) [%] | normalised response (CAL-148) [%] | normalised response (CAL-51) [%] | normalised response (CAL-85-1) [%] | normalised response (DU-4475) [%] | normalised response (HCC1143) [%] | normalised response (HCC1599) [%] | normalised response (HCC1937) [%] | normalised response (Hs578T) [%] | normalised response (MCF-10A) [%] | normalised response (MDA-MB-231) [%] | normalised response (MDA-MB-436 [1]) [%] | normalised response (MDA-MB-453) [%] | normalised response (MDA-MB-468 [2]) [%] | normalised response (MFM-223 [3]) [%] | normalised response (MDA-MB-436 [4]) [%] | normalised response (MDA-MB-468 [5]) [%] | normalised response (MFM-223 [6]) [%] | normalised response (SK-BR-3) [%] | normalised response (HDQ-P1) [%]
NC(=O)c1cccc2cn(-c3ccc([C@@H]4CCCNC4)cc3)nc12 [MK-4827] (1000 nM) | 101 | 134 | 98.5 | 80.5 | 82.8 | 95.6 | 97.8 | 81.1 | 99.2 | 104 | 113 | 111 | 120 | 86.7 | 106 | 110 | 101 | 79.3 | 101 | 106 | 98.8 | –
O=C(c1cc(Cc2n[nH]c(=O)c3ccccc23)ccc1F)N1CCN(C(=O)C2CC2)CC1 [Olaparib] (1000 nM) | 92.9 | 124 | 97 | 92.9 | 89.5 | 102 | 99.7 | 93.3 | 94.9 | 109 | 83.4 | 101 | 100 | 60.6 | 112 | 122 | – | 75.2 | 91.8 | 101 | 92 | 71.5
CO[C@H](C(=O)[C@@H](O)[C@@H](C)O)[C@@H]1Cc2cc3cc(O[C@H]4C[C@@H](O[C@@H]5C[C@@H](O)[C@H](O)[C@@H](C)O5)[C@H](O)[C@@H](C)O4)c(C)c(O)c3c(O)c2C(=O)[C@H]1O[C@H]1C[C@@H](O[C@@H]2C[C@@H](O)[C@@H](O[C@@H]3C[C@](C)(O)[C@H](O)[C@@H](C)O3)[C@@H](C)O2)[C@H](O)[C@@H](C)O1 [Plicamycin] (1000 nM) | 100 | 107 | 103 | 109 | 94.9 | 99.3 | 104 | 81.6 | 94.9 | 104 | 106 | 86.6 | 106 | – | 104 | – | 81.3 | 103 | 91 | 104 | 106 | 97.8
CO[C@H](C(=O)[C@@H](O)[C@@H](C)O)[C@@H]1Cc2cc3cc(O[C@H]4C[C@@H](O[C@@H]5C[C@@H](O)[C@H](O)[C@@H](C)O5)[C@H](O)[C@@H](C)O4)c(C)c(O)c3c(O)c2C(=O)[C@H]1O[C@H]1C[C@@H](O[C@@H]2C[C@@H](O)[C@@H](O[C@@H]3C[C@](C)(O)[C@H](O)[C@@H](C)O3)[C@@H](C)O2)[C@H](O)[C@@H](C)O1 [Plicamycin] (10000 nM) | 96 | 79.8 | 71.9 | 68.9 | -45.3 | 39.3 | 87.9 | 82.2 | 87.9 | 114 | 40.9 | 9.61 | 55.1 | 109 | 45.7 | 54 | 88.4 | – | – | – | – | 82.1
CO[C@H]1C[C@@H]2CC[C@@H](C)[C@@](O)(O2)C(=O)C(=O)N2CCCC[C@H]2C(=O)O[C@H]([C@H](C)C[C@@H]2CC[C@@H](O)[C@H](OC)C2)CC(=O)[C@H](C)/C=C(\C)[C@@H](O)[C@@H](OC)C(=O)[C@H](C)C[C@H](C)/C=C/C=C/C=C/1C [Sirolimus] (100 nM) | 103 | 93.7 | 106 | 94.4 | 99.1 | 110 | 98.5 | 101 | 106 | 49.5 | 106 | 107 | 116 | 94.5 | 106 | 141 | 103 | – | – | – | – | 108
COc1cc2c(N3CCN(C(=O)Nc4ccc(OC(C)C)cc4)CC3)ncnc2cc1OCCCN1CCCCC1 [Tandutinib] (100 nM) | 96.3 | 129 | 97.3 | 100 | 96.4 | 110 | 98 | 93.2 | 91.2 | 112 | 91.6 | 108 | 105 | 94.2 | 106 | 134 | 100 | 114 | 103 | 101 | 98.4 | –
Cn1nnc2c(C(N)=O)ncn2c1=O [Temozolomide] (10000 nM) | 101 | 75.3 | 98.5 | 102 | 104 | 105 | 98.2 | 93.6 | 99.2 | 105 | 111 | 93.2 | 108 | 94.4 | 101 | 103 | 97.3 | – | – | – | – | 109
CC[C@@H]1C(=O)N(C)c2cnc(Nc3ccc(C(=O)N[C@H]4CC[C@H](N5CCN(CC6CC6)CC5)CC4)cc3OC)nc2N1C(C)C [Volasertib] (1000 nM) | 94.7 | 71 | 63.5 | 85.8 | 22.4 | 88.7 | 90.4 | -18.9 | 74.2 | 59.1 | -77.7 | 56.1 | 95 | 92.7 | 91.3 | 118 | 70.6 | – | – | – | – | 31.2
